ChEMBL document CHEMBL4308841, “Synthesis, in vitro antiproliferative activity, and kinase inhibitory effects of pyrazole-containing diarylureas and diarylamides” (Eur J Med Chem, 2018)

What follows are molecules tested on KM12 (assay: Growth inhibition of human KM12 cells assessed as cell growth at 10 uM incubated for 48 hrs by sulforhodamine B assay relative to control). Conditions: KM12, 48 h, read-out: Activity.
Format: functional

Row | Structure (SMILES) | growth at 10 µM
1 | O=C(Nc1cccc(-n2cc(-c3ccncc3)c(-c3cc(O)cc(Cl)c3)n2)c1)c1cc(C(F)(F)F)cc(C(F)(F)F)c1 | 21.2%

Each molecule was assayed on SF-295 (assay: Growth inhibition of human SF295 cells assessed as cell growth at 10 uM incubated for 48 hrs by sulforhodamine B assay relative to control). Conditions: SF-295, 48 h, read-out: Activity.
Format: functional

Row | Structure (SMILES) | growth at 10 µM
2 | O=C(Nc1cccc(-n2cc(-c3ccncc3)c(-c3cc(O)cc(Cl)c3)n2)c1)c1cc(C(F)(F)F)cc(C(F)(F)F)c1 | 15%

Each molecule was assayed on SF-268 (assay: Growth inhibition of human SF268 cells assessed as cell growth at 10 uM incubated for 48 hrs by sulforhodamine B assay relative to control). Conditions: SF-268, 48 h, read-out: Activity.
Format: functional

Row | Structure (SMILES) | growth at 10 µM
3 | O=C(Nc1cccc(-n2cc(-c3ccncc3)c(-c3cc(O)cc(Cl)c3)n2)c1)c1cc(C(F)(F)F)cc(C(F)(F)F)c1 | 69.3%

The molecules below were run on CCRF-CEM (assay: Growth inhibition of human CCRF-CEM cells assessed as cell growth at 10 uM incubated for 48 hrs by sulforhodamine B assay relative to control). Conditions: read-out: Activity.
Format: functional

Row | Structure (SMILES) | growth at 10 µM
4 | O=C(Nc1cccc(-n2cc(-c3ccncc3)c(-c3cc(O)cc(Cl)c3)n2)c1)c1cc(C(F)(F)F)cc(C(F)(F)F)c1 | 26.9%

These molecules were tested on NCI-H23 (assay: Growth inhibition of human NCI-H23 cells assessed as cell growth at 10 uM incubated for 48 hrs by sulforhodamine B assay relative to control). Conditions: NCI-H23, 48 h, read-out: Activity.
Format: functional

Row | Structure (SMILES) | growth at 10 µM
5 | O=C(Nc1cccc(-n2cc(-c3ccncc3)c(-c3cc(O)cc(Cl)c3)n2)c1)c1cc(C(F)(F)F)cc(C(F)(F)F)c1 | 42.7%

These molecules were tested on HCT-15 (assay: Growth inhibition of human HCT15 cells assessed as cell growth at 10 uM incubated for 48 hrs by sulforhodamine B assay relative to control). Conditions: HCT-15, 48 h, read-out: Activity.
Format: functional

Row | Structure (SMILES) | growth at 10 µM
6 | O=C(Nc1cccc(-n2cc(-c3ccncc3)c(-c3cc(O)cc(Cl)c3)n2)c1)c1cc(C(F)(F)F)cc(C(F)(F)F)c1 | 30.1%

Each molecule was assayed on OVCAR-4 (assay: Growth inhibition of human OVCAR4 cells assessed as cell growth at 10 uM incubated for 48 hrs by sulforhodamine B assay relative to control). Conditions: OVCAR-4, 48 h, read-out: Activity.
Format: functional

Row | Structure (SMILES) | growth at 10 µM
7 | O=C(Nc1cccc(-n2cc(-c3ccncc3)c(-c3cc(O)cc(Cl)c3)n2)c1)c1cc(C(F)(F)F)cc(C(F)(F)F)c1 | 59.6%

Each molecule was assayed on Malme-3M (assay: Growth inhibition of human MALME-3M cells assessed as cell growth at 10 uM incubated for 48 hrs by sulforhodamine B assay relative to control). Conditions: read-out: Activity.
Format: functional

Row | Structure (SMILES) | growth at 10 µM
8 | O=C(Nc1cccc(-n2cc(-c3ccncc3)c(-c3cc(O)cc(Cl)c3)n2)c1)c1cc(C(F)(F)F)cc(C(F)(F)F)c1 | 61.8%

Each molecule was assayed on COLO 205 (assay: Growth inhibition of human COLO205 cells assessed as cell growth at 10 uM incubated for 48 hrs by sulforhodamine B assay relative to control). Conditions: COLO 205, 48 h, read-out: Activity.
Format: functional

Row | Structure (SMILES) | growth at 10 µM
9 | O=C(Nc1cccc(-n2cc(-c3ccncc3)c(-c3cc(O)cc(Cl)c3)n2)c1)c1cc(C(F)(F)F)cc(C(F)(F)F)c1 | 38.7%

These molecules were tested on BT-549 (assay: Growth inhibition of human BT549 cells assessed as cell growth at 10 uM incubated for 48 hrs by sulforhodamine B assay relative to control). Conditions: BT-549, 48 h, read-out: Activity.
Format: functional

Row | Structure (SMILES) | growth at 10 µM
10 | O=C(Nc1cccc(-n2cc(-c3ccncc3)c(-c3cc(O)cc(Cl)c3)n2)c1)c1cc(C(F)(F)F)cc(C(F)(F)F)c1 | 73.4%

What follows are molecules tested on A498 (assay: Growth inhibition of human A498 cells assessed as cell growth at 10 uM incubated for 48 hrs by sulforhodamine B assay relative to control). Conditions: A498, 48 h, read-out: Activity.
Format: functional

Row | Structure (SMILES) | growth at 10 µM
11 | O=C(Nc1cccc(-n2cc(-c3ccncc3)c(-c3cc(O)cc(Cl)c3)n2)c1)c1cc(C(F)(F)F)cc(C(F)(F)F)c1 | 40.3%

The molecules below were run on OVCAR-5 (assay: Growth inhibition of human OVCAR5 cells assessed as cell growth at 10 uM incubated for 48 hrs by sulforhodamine B assay relative to control). Conditions: OVCAR-5, 48 h, read-out: Activity.
Format: functional

Row | Structure (SMILES) | growth at 10 µM
12 | O=C(Nc1cccc(-n2cc(-c3ccncc3)c(-c3cc(O)cc(Cl)c3)n2)c1)c1cc(C(F)(F)F)cc(C(F)(F)F)c1 | 70.7%

The molecules below were run on U-251 (assay: Growth inhibition of human U251 cells assessed as cell growth at 10 uM incubated for 48 hrs by sulforhodamine B assay relative to control). Conditions: U-251, 48 h, read-out: Activity.
Format: functional

Row | Structure (SMILES) | growth at 10 µM
13 | O=C(Nc1cccc(-n2cc(-c3ccncc3)c(-c3cc(O)cc(Cl)c3)n2)c1)c1cc(C(F)(F)F)cc(C(F)(F)F)c1 | 37.2%

The molecules below were run on MDA-MB-231 (assay: Growth inhibition of human MDA-MB-231 cells assessed as cell growth at 10 uM incubated for 48 hrs by sulforhodamine B assay relative to control). Conditions: MDA-MB-231, 48 h, read-out: Activity.
Format: functional

Row | Structure (SMILES) | growth at 10 µM
14 | O=C(Nc1cccc(-n2cc(-c3ccncc3)c(-c3cc(O)cc(Cl)c3)n2)c1)c1cc(C(F)(F)F)cc(C(F)(F)F)c1 | -34.6%

Each molecule was assayed on Hs-578T (assay: Growth inhibition of human Hs578T cells assessed as cell growth at 10 uM incubated for 48 hrs by sulforhodamine B assay relative to control). Conditions: read-out: Activity.
Format: functional

Row | Structure (SMILES) | growth at 10 µM
15 | O=C(Nc1cccc(-n2cc(-c3ccncc3)c(-c3cc(O)cc(Cl)c3)n2)c1)c1cc(C(F)(F)F)cc(C(F)(F)F)c1 | 65.9%

The molecules below were run on M14 (assay: Growth inhibition of human M14 cells assessed as cell growth at 10 uM incubated for 48 hrs by sulforhodamine B assay relative to control). Conditions: M14, 48 h, read-out: Activity.
Format: functional

Row | Structure (SMILES) | growth at 10 µM
16 | O=C(Nc1cccc(-n2cc(-c3ccncc3)c(-c3cc(O)cc(Cl)c3)n2)c1)c1cc(C(F)(F)F)cc(C(F)(F)F)c1 | 24.5%
